Earlier results, collected in patent publication US20210198628A1, “BASAL MEDIA FOR GROWING NK-92 CELLS” (NantKwest, Inc., priority 2018, published 2021).

Conditions: in vivo

For CC[C@H](C(=O)N1CCCC[C@H]1C(=O)O[C@H](CCc1ccc(OC)c(OC)c1)c1cccc(OCC(=O)NCCNC(=O)COc2cccc([C@@H](CCc3ccc(OC)c(OC)c3)OC(=O)[C@@H]3CCCCN3C(=O)[C@@H](CC)c3cc(OC)c(OC)c(OC)c3)c2)c1)c1cc(OC)c(OC)c(OC)c1 [AP1903], the “tolerability in clinical studies” value is given as “well tolerated”.
